Measured values as given in US20080089844A1 (priority 2002, published 2008).
pIC50: −log10 of the molar value. Entries after “also recorded” stand apart in the source; their conditions may differ. Where two headings read alike, the source gives them in different places.

Tests used:
[1] = molecular target: Kv3.4 (Homo sapiens, UniProt Q03721); details: cited from earlier work
[2] = molecular target: Nav1.2 (Homo sapiens, UniProt Q99250); details: cited from earlier work
[3] = system: isolated rabbit hearts
[4] = system: ventricular myocyte, cortex and trachea primary cultures; assay type: cell-based, rat
[5] = molecular target: Kv1.4 (Homo sapiens, UniProt P22459); details: cited from earlier work
Sequence of Kv1.4 (P22459 whole entry, looked up): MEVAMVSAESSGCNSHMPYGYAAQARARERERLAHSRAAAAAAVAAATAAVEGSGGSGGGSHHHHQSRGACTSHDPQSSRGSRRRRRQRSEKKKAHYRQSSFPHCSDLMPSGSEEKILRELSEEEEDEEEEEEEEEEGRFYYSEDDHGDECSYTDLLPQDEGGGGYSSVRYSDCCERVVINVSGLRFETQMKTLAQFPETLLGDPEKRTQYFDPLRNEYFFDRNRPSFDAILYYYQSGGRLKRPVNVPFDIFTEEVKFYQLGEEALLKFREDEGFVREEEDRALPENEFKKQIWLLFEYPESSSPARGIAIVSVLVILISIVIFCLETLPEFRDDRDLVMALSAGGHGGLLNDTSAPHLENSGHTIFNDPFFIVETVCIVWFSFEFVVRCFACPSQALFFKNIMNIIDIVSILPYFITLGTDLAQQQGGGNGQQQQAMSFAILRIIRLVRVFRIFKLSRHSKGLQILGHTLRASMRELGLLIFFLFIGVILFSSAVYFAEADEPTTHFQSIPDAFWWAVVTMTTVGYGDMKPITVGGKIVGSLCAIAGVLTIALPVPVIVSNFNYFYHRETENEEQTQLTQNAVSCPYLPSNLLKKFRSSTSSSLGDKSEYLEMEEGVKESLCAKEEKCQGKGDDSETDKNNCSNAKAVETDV

[6] = system: primary cultures of myocytes; assay type: cell-based, rat
[7] = molecular target: Kv1.1 (Homo sapiens, UniProt Q09470); details: cited from earlier work
Sequence of Kv1.1 (Q09470 whole entry, looked up): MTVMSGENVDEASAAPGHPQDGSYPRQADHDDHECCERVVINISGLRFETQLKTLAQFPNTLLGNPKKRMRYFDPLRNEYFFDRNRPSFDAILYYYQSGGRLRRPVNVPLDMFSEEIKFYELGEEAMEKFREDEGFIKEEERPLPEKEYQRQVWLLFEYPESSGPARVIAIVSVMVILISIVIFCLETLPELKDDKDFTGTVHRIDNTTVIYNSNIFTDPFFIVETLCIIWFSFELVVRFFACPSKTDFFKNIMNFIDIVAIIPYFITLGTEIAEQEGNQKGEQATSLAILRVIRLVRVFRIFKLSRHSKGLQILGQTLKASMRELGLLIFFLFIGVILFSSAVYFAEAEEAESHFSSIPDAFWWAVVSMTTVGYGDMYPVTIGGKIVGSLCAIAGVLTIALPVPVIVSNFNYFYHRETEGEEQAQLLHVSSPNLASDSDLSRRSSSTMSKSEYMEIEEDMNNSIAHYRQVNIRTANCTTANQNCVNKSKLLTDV

[8] = system: cardiac ventricular myocytes; assay type: cell-based, rat
[9] = molecular target: eag (Homo sapiens, UniProt O95259); details: cited from earlier work
[10] = molecular target: Kv4.2 (Homo sapiens, UniProt Q9NZV8); details: cited from earlier work
Sequence of Kv4.2 (Q9NZV8 whole entry, looked up): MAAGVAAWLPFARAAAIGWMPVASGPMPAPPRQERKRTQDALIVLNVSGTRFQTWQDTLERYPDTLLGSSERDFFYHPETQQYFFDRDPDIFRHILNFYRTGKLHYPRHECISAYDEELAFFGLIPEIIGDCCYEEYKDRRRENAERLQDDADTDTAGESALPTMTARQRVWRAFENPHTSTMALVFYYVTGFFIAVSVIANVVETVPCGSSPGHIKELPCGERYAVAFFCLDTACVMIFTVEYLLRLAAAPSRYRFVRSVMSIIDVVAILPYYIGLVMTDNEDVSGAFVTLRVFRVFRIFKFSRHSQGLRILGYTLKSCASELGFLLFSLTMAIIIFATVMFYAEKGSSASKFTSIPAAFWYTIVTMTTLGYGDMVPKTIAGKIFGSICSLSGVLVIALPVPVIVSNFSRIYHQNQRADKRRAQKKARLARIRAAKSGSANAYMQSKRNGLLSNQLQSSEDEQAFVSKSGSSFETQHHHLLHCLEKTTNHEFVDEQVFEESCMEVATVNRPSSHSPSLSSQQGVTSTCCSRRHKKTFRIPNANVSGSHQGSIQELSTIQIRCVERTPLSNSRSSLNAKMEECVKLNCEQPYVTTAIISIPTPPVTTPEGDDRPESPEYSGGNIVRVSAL

[11] = molecular target: Shaker potassium channel (Drosophila melanogaster, UniProt P08510); details: cited from earlier work
Sequence of Shaker potassium channel (P08510 whole entry, looked up): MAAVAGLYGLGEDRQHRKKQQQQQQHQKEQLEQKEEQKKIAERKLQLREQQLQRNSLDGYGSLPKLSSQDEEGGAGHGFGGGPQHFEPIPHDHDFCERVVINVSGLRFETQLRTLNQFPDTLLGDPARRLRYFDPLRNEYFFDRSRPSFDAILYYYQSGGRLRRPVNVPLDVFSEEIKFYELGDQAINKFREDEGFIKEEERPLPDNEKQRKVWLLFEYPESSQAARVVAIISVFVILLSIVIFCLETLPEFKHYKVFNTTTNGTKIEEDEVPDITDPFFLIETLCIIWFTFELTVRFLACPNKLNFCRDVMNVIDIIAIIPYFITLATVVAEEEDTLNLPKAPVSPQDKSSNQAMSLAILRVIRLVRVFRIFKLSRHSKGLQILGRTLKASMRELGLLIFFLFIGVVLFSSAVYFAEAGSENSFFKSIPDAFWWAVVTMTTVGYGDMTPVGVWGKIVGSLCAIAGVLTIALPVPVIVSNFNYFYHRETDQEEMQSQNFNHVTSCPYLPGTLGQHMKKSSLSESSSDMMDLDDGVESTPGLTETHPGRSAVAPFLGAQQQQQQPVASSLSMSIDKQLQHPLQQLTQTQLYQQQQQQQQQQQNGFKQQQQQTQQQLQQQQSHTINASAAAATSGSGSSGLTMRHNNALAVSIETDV

[12] = rat, in vivo, iv
[13] = molecular target: herg (Homo sapiens, UniProt Q12809); details: cited from earlier work
Sequence of herg (Q12809 whole entry, looked up): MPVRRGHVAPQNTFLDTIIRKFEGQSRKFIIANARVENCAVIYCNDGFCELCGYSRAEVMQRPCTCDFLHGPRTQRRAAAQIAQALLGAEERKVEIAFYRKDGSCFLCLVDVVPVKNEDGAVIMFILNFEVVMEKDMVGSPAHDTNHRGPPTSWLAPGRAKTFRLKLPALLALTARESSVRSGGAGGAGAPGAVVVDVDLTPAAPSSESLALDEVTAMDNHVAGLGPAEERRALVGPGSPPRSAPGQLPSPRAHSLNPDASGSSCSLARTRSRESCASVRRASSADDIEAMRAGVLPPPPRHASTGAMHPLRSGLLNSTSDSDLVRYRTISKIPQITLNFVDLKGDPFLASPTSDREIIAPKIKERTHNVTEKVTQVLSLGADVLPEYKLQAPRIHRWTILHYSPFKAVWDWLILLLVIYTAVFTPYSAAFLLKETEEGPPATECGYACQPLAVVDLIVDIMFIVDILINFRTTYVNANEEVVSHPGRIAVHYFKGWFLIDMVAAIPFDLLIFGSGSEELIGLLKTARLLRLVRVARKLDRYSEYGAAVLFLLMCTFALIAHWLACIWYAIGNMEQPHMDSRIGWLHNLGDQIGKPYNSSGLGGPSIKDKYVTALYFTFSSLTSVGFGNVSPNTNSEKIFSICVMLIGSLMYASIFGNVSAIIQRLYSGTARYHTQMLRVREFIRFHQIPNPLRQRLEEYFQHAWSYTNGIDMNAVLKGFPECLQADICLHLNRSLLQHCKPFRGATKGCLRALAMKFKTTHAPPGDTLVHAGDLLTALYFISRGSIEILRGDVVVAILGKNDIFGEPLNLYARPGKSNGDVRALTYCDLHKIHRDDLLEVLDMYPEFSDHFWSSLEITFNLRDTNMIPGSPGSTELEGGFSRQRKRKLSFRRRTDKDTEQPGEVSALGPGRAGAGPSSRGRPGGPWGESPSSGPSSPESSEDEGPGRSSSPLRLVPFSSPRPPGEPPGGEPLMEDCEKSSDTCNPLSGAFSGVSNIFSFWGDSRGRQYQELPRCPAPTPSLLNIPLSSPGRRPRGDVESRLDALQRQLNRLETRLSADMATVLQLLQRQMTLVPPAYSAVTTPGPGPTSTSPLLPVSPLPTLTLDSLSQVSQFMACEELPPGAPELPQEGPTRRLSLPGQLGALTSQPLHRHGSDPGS

[14] = system: trout Shaker homolog (Sha1); details: cited from earlier work
[15] = molecular target: Kv2.1 (Homo sapiens, UniProt Q14721); details: cited from earlier work
Sequence of Kv2.1 (Q14721 whole entry, looked up): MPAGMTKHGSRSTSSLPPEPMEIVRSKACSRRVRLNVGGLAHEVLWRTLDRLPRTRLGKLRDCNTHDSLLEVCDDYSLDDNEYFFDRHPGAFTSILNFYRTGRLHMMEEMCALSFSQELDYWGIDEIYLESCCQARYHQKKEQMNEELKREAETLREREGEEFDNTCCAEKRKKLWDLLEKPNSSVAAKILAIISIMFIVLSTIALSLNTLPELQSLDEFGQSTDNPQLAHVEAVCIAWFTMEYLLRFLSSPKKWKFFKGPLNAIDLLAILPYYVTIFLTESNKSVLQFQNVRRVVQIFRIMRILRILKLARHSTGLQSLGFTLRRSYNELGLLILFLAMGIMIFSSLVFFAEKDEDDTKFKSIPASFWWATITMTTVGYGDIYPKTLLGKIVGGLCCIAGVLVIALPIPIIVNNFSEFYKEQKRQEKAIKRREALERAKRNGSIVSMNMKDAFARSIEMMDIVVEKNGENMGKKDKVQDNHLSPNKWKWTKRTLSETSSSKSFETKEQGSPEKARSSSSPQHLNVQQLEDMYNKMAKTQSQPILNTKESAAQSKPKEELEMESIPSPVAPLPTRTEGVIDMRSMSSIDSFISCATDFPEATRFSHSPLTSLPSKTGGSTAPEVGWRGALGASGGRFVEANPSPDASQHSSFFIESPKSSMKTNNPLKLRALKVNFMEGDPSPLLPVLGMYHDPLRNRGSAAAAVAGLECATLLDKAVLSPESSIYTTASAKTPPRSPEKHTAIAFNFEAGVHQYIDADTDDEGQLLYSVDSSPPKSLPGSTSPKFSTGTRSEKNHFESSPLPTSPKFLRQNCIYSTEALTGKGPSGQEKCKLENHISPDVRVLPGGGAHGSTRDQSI

[16] = molecular target: Nav1.5 (Homo sapiens, UniProt Q14524); details: cited from earlier work
[17] = molecular target: Kv1.3 (Homo sapiens, UniProt P22001); details: cited from earlier work
Sequence of Kv1.3 (P22001 whole entry, looked up): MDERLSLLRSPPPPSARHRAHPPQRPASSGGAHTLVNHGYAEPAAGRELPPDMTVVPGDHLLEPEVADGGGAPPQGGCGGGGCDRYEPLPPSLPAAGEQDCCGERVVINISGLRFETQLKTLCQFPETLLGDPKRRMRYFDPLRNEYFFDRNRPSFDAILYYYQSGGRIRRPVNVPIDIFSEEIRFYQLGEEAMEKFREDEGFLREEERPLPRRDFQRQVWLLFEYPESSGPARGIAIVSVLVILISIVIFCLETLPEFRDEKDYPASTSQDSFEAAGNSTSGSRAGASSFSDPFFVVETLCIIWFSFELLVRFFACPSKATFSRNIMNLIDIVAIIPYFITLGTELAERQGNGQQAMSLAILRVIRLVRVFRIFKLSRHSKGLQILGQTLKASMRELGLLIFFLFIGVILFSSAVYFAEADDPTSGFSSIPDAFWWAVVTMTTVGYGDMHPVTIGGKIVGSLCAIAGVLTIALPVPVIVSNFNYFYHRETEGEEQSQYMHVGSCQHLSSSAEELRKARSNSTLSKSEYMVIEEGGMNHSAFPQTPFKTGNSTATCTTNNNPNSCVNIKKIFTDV

[18] = molecular target: F425G Shaker mutation (Drosophila melanogaster, UniProt P08510, F425G); details: cited from earlier work
Sequence of F425G Shaker mutation (P08510 whole entry F425G, looked up): as the sequence (P08510 whole entry, looked up) above, with F425G counted along it

[19] = system: New Zealand White rabbits; details: rabbit, in vivo

Substance: Leu-X2-Ser-Cys-Cys-Ser-Leu-Asn-Leu-X1-Leu-Cys-X2-Val-X2-Ala-Cys-X3-X1-Asn-X2-Cys-Cys-Thr [κM-RIIIK]
- activity on Kv3.4 [1]: no detectable activity
- activity on Nav1.2 [2]: no detectable activity
- infarct size [3]: reduces the infarct size
- protection against hypoxia-induced changes in intracellular calcium [4]: able to provide protection against hypoxia
- activity on Kv1.4 [5]: no detectable activity
- induction of glibenclamide-sensitive currents [6]: induces glibenclamide-sensitive currents in primary cultures of myocytes in a highly potent manner
- activity on Kv1.1 [7]: no detectable activity
- protection against hypoxia-induced depolarization [8]: prevents any hypoxia-induced changes in membrane potential; also recorded: strong protective effect; also recorded: confers protection against hypoxia-induced depolarization
- activity on eag [9]: no detectable activity
- activity on Kv4.2 [10]: no detectable activity
- state dependence of inhibition, open vs closed state affinity [11]: three to four times lower affinity for the open state
- pIC50 ([11]; read-out: IC50, antagonist of the Shaker potassium channel): ~5.92
- effect on blood pressure [12]: no effect
- effect on heart rate [12]: no effect
- activity on herg [13]: no detectable activity
- state dependence of inhibition, open vs closed state affinity [14]: three to four times lower affinity for the open state
- pIC50 ([14]; read-out: IC50 on Sha1, closed state): 7.70
- pIC50 ([14]; read-out: IC50 on Sha1, open state): 7.22
- activity on Kv2.1 [15]: no detectable activity
- activity on Nav1.5 [16]: no detectable activity
- activity on Kv1.3 [17]: no detectable activity
- effect of F425G Shaker mutation on κM-RIIIK sensitivity [18]: decreases κM-RIIIK sensitivity
- infarct size [19]: reduces the infarct size
- hemodynamic effect ([19]; iv): without any hemodynamic effect
